{"source": "paper PMC8455565", "about": "(Scientific Reports, 2021)", "key": {"ITK": {"molecular_target": "T1, ITK (Homo sapiens, UniProt Q08881)", "T1 sequence (Q08881 1-620)": "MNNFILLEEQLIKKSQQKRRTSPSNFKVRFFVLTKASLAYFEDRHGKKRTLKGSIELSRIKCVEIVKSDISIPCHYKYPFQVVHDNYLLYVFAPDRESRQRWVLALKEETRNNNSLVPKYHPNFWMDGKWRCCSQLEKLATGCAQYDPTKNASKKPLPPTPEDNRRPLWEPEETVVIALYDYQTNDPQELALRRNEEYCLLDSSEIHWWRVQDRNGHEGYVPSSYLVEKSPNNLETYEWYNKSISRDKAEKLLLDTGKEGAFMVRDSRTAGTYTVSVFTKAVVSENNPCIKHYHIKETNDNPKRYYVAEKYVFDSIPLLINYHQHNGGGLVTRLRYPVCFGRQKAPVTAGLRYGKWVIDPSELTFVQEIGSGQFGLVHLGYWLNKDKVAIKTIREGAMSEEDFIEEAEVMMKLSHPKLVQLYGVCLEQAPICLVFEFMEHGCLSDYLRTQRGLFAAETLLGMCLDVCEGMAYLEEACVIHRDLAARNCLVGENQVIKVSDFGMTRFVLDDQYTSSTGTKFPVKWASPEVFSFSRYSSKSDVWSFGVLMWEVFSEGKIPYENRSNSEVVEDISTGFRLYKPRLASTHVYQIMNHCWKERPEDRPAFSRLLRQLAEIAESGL", "test": "Kinase selectivity biochemical assay, ITK"}, "CD4+ Memory (CD3+CD28)": {"tested_on": "CD4+ Memory (CD3+CD28)", "test": "High-dimensional phosphorylation analysis, CD4+ Memory (CD3+CD28)", "assay_type": "cell-based, human", "conditions": "30 µM, 5'", "procedure": "(§1) The analysis measured 94 intracellular signaling nodes (81 phosphorylation sites, 10 total protein levels and 3 methylation/acetylation sites) in stimulated immune cells, including B cells (IgM plus CD40L), CD4 + and CD8 + T cells (IL-2; CD3 plus CD28), monocytes (M-CSF), NK cells (IL-2), and granulocytes (LPS)."}, "BMX": {"molecular_target": "T2, BMX (Homo sapiens, UniProt P51813)", "T2 sequence (P51813 1-675)": "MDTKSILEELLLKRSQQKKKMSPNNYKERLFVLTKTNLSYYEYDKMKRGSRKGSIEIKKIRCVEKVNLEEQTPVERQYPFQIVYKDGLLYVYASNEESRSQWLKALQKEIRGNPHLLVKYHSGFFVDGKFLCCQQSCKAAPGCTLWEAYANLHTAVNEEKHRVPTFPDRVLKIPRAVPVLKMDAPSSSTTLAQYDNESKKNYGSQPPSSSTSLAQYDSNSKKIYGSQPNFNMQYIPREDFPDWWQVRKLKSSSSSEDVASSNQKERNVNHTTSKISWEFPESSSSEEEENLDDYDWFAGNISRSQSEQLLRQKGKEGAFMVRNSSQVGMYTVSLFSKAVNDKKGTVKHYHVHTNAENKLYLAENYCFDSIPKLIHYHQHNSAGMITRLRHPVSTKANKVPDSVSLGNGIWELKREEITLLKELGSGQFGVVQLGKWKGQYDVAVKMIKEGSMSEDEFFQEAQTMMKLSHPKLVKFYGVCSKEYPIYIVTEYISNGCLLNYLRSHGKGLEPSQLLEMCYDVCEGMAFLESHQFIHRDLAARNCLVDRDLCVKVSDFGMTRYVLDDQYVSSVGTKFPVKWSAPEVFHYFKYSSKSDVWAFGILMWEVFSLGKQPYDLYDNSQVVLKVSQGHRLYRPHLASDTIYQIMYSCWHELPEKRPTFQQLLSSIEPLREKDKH", "test": "Kinase selectivity biochemical assay (FRET), BMX"}, "CIA model rats": {"tested_on": "CIA model rats", "test": "Histopathological assessment of arthritis in CIA rats", "assay_type": "in vivo, rat", "conditions": "for Histological assessment (Means of the 4 indexes): mean ± SEM", "procedure": "Briefly, the hind legs of each rat were fixed with 10% formalin, decalcified in 5% formic acid, embedded in paraffin, and cut for pathological staining. Arthritis, bone erosion and synovitis were determined by hematoxylin and eosin (H&E) staining, and cartilage damage was evaluated by safranin O staining. All parameters were scored on a scale of 0 to 4 based on severity according to the following criteria: 0 = no erosion, 1 = mild (focal subchondral erosion), 2 = moderate (multiple subchondral erosions), 3 = high (multiple subchondral erosions and focal erosion of the talus), and 4 = maximum (multiple erosions of the tarsal and metatarsal bones). This test was conducted by the Department of Pathology of Asan Medical Center (University of Ulsan College of Medicine, Republic of Korea)."}, "B cells (IgM+CD40L)": {"tested_on": "B cells (IgM+CD40L)", "test": "High-dimensional phosphorylation analysis, B cells (IgM+CD40L)", "assay_type": "cell-based, human", "procedure": "as §1"}, "TXK": {"molecular_target": "T3, TXK (Homo sapiens, UniProt P42681)", "T3 sequence (P42681 1-527)": "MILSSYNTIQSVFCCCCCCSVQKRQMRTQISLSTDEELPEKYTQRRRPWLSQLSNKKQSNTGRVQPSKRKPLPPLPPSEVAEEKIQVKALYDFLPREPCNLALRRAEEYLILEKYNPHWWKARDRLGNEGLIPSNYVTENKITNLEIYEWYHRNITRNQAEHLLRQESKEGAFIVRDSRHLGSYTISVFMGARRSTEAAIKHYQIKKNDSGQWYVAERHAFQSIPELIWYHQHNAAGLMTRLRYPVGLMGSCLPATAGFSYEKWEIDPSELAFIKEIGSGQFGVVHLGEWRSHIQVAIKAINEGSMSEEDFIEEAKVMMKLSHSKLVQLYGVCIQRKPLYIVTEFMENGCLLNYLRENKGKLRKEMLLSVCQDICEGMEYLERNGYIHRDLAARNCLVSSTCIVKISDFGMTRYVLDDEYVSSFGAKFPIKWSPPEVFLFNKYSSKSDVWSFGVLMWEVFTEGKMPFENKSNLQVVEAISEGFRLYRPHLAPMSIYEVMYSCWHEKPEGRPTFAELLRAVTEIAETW", "test": "Kinase biochemical assay (FRET), TXK", "conditions": "read-out: inhibitory activity on TXK"}, "B cells": {"tested_on": "B cells", "test": "B cell inhibition in whole blood", "assay_type": "cell-based"}, "[1]": {"conditions": "3 mg/kg, ankle joints, vs CIA control"}, "[2]": {"conditions": "30 μM, all time points (2, 5, 15, 60 min)"}}, "note": "pIC50: −log10 of the molar value."}
{"compound": "C=CC(=O)Nc1cccc(Oc2nc(Nc3ccc(N4CCN(C)CC4)cc3)nc3ccoc23)c1", "note": "[Poseltinib]", "values": [{"measurement": "selectivity toward BTK over ITK", "setting": "ITK", "result": 53, "unit": "×"}, {"measurement": "BTK phosphorylation, Log2Ratio Stim/Control", "setting": "CD4+ Memory (CD3+CD28)", "result": 1.21}, {"measurement": "CD247 phosphorylation, Log2Ratio Stim/Control", "setting": "CD4+ Memory (CD3+CD28)", "result": 2.86}, {"measurement": "CrkL phosphorylation, Log2Ratio Stim/Control", "setting": "CD4+ Memory (CD3+CD28)", "result": 1.63}, {"measurement": "LCK phosphorylation, Log2Ratio Stim/Control", "setting": "CD4+ Memory (CD3+CD28)", "result": 1.51}, {"measurement": "PLCγ2 phosphorylation, Log2Ratio Stim/Control", "setting": "CD4+ Memory (CD3+CD28)", "result": 2.43}, {"measurement": "PTK2B phosphorylation, Log2Ratio Stim/Control", "setting": "CD4+ Memory (CD3+CD28)", "result": 0.93}, {"measurement": "SLP76 phosphorylation, Log2Ratio Stim/Control", "setting": "CD4+ Memory (CD3+CD28)", "result": 1.63}, {"measurement": "Src phosphorylation, Log2Ratio Stim/Control", "setting": "CD4+ Memory (CD3+CD28)", "result": 0.82}, {"measurement": "ZAP70 phosphorylation, Log2Ratio Stim/Control", "setting": "CD4+ Memory (CD3+CD28)", "result": 1.22}, {"measurement": "pIC50", "setting": "BMX", "result": "> 8.00"}, {"measurement": "Histological assessment (Means of the 4 indexes)", "setting": "CIA model rats; 0.3 mg/kg oral once daily", "result": "6.9 ± 0.2"}, {"measurement": "Histological assessment (Means of the 4 indexes)", "setting": "CIA model rats; 1 mg/kg oral once daily", "result": "6.3 ± 0.2"}, {"measurement": "Histological assessment (Means of the 4 indexes)", "setting": "CIA model rats; 3 mg/kg oral once daily", "result": "4.1 ± 0.2"}, {"measurement": "arthritis index reduction", "setting": "CIA model rats; [1]", "result": 44, "unit": "%"}, {"measurement": "bone erosion index reduction", "setting": "CIA model rats; [1]", "result": 38, "unit": "%"}, {"measurement": "cartilage degradation index reduction", "setting": "CIA model rats; [1]", "result": 37, "unit": "%"}, {"measurement": "synovitis index reduction", "setting": "CIA model rats; [1]", "result": 37, "unit": "%"}, {"measurement": "Akt phosphorylation, Log2Ratio Stim/Control", "setting": "B cells (IgM+CD40L); 30 µM, 5'", "result": -0.97}, {"measurement": "BTK phosphorylation, Log2Ratio Stim/Control", "setting": "B cells (IgM+CD40L); 30 µM, 5'", "result": 0.06}, {"measurement": "CREB1 phosphorylation, Log2Ratio Stim/Control", "setting": "B cells (IgM+CD40L); 30 µM, 5'", "result": 1.74}, {"measurement": "MAPK3 phosphorylation, Log2Ratio Stim/Control", "setting": "B cells (IgM+CD40L); 30 µM, 5'", "result": 1.30}, {"measurement": "PLCγ2 phosphorylation, Log2Ratio Stim/Control", "setting": "B cells (IgM+CD40L); 30 µM, 5'", "result": 0.82}, {"measurement": "RPS6KA1 phosphorylation, Log2Ratio Stim/Control", "setting": "B cells (IgM+CD40L); 30 µM, 5'", "result": 1.13}, {"measurement": "RPS6 phosphorylation, Log2Ratio Stim/Control", "setting": "B cells (IgM+CD40L); 30 µM, 5'", "result": 1.35}, {"measurement": "SAPK/JNK phosphorylation, Log2Ratio Stim/Control", "setting": "B cells (IgM+CD40L); 30 µM, 5'", "result": 0.82}, {"measurement": "SLP76 phosphorylation, Log2Ratio Stim/Control", "setting": "B cells (IgM+CD40L); 30 µM, 5'", "result": 0.86}, {"measurement": "WIPF1 phosphorylation, Log2Ratio Stim/Control", "setting": "B cells (IgM+CD40L); 30 µM, 5'", "result": 1.81}, {"measurement": "phosphorylation of AKT (S473)", "setting": "B cells (IgM+CD40L); [2]", "result": "inhibited"}, {"measurement": "phosphorylation of BTK (Y223)", "setting": "B cells (IgM+CD40L); [2]", "result": "inhibited"}, {"measurement": "phosphorylation of PLCγ2 (Y759)", "setting": "B cells (IgM+CD40L); [2]", "result": "inhibited"}, {"measurement": "pIC50", "setting": "TXK", "result": "> 8.00"}, {"measurement": "pIC50", "setting": "B cells", "result": 6.38}]}
